Measured values published in patent publication US5663174A, “Aromatic sulfonamide derivatives, their use as enzyme inhibitors and pharmaceutical compositions containing them” (Pharno-Wedropharm GmbH, priority 1997, dated 1997).
Where two headings read alike, the source gives them in different places.

Molecular target: T1, bovine pancreatic PLA2 (Bos taurus, UniProt P00593)
T1 construct: from tissue; host or cells: bovine pancreas
Experiment: Phospholipase A2 (PLA2) activity, enzyme assay
Format: biochemical
Method: Phospholipase A2 (PLA2) activity was measured using bovine pancreatic PLA2 as the enzyme and a sonicated dispersion of 1-stearoyl-2-[C^14 ]-arachidonyl-phosphatidylcholine (56 mCi/mmol) as the substrate in the following manner: 60 ng bovine pancreatic PLA2 was mixed and incubated with buffer and inhibitors (100 mM Tris, pH 8; 100 mM CaCl2; 20 mM EDTA, pH 8) at 37° C. for 10 min. to allow interaction between the enzyme and the drugs. The substrate (38 nCi) in buffer and 0.3% cholate was added to initiate the reaction which continued for 20 min. at 37° C. The total reaction volume was 0.1 ml. The reaction was stopped by adding 0.1 ml of an ice cold EtOH/HOAc 98:2 mixture. Released arachidonic acid was separated from the unreacted substrate via thin layer chromatography on silica gel (solvent system CHCl3 /MeOH/H2 O 14:6:1). The radioactivity of the two spots was quantified using a bioscanner.
Inhibitors were dissolved in buffer^13 and tested in duplicate within each experiment, and each inhibitor was tested in at least two experiments. When necessary, inhibitors were dissolved in DMSO^14. The % inhibition at a given concentration was combined for several experiments and the IC50 determined from a semilog plot of % inhibition vs concentration. Under the condition described the rate of hydrolysis was 20-25% of the substrate being hydrolyzed in absence of inhibitors.
^13 0.01 ml inhibitor solution were used in these experiments.
^14 0.005 ml inhibitor solution were used in these experiments (=5 vol %).

[1] = Table 20, from semilog plot of % inhibition vs concentration, substrate 1-stearoyl-2-[C^14]-arachidonyl-phosphatidylcholine, 37° C., pH 8, 20 min
[2] = Table 20, from semilog plot of % inhibition vs concentration, substrate 1-stearoyl-2-[C^14]-arachidonyl-phosphatidylcholine, 37° C., pH 8, 20 min, read-out: IC50

T1 sequence (P00593 23-145): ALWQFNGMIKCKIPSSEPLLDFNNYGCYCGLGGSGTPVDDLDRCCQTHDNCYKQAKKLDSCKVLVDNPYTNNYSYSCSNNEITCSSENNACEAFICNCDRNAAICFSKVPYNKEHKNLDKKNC

SMILES | IC50 [2] [µM] | also measured
O=C([C@H](Cc1ccccc1)NS(=O)(=O)c1ccccc1)N1CCNCC1 [Compound 1, N-benzenesulfonyl-L-phenylalanine piperazineamide] | – | IC50 [1]: promotion
C[C@H](NS(=O)(=O)c1ccccc1)C(=O)N1CCNCC1 [Compound 2, N-benzenesulfonyl-L-alanine piperazineamide] | – | IC50 [1]: promotion
O=C(Nc1ccc(-c2ccccc2)cc1)[C@H](Cc1ccccc1)NS(=O)(=O)c1ccccc1 [Compound 7, N-benzenesulfonyl-L-phenylalanine biphenylamide] | 310 | –
O=C(Nc1ccc(-c2ccccc2)cc1)[C@@H]1CCCN1S(=O)(=O)c1ccccc1 [Compound 10, N-benzenesulfonyl-L-proline biphenylamide] | 520 | –
O=C(Nc1ccc(-c2ccccc2)cc1)[C@H](Cc1c[nH]c2ccccc12)NS(=O)(=O)c1ccccc1 [Compound 11, N-benzenesulfonyl-L-tryptophane biphenylamide] | 570 | –
O=C([C@H](Cc1ccccc1)NS(=O)(=O)c1cccc2c(Cl)cccc12)N1CCNCC1 [Compound 21, N-(5-chloro-1-naphthalenesulfonyl)-L-phenylalanine piperazineamide] | 600 | –
CC(C)[C@H](NS(=O)(=O)c1cccc2c(Cl)cccc12)C(=O)N1CCNCC1 [Compound 22, N-(5-chloro-1-naphthalenesulfonyl)-L-valine piperazineamide] | 310 | –
NCCCCCCNC(=O)[C@H](Cc1ccccc1)NS(=O)(=O)c1cccc2c(Cl)cccc12 [Compound 25, N-(5-chloro-1-naphthalenesulfonyl)-L-phenylalanine-1,6-diaminohexaneamide] | – | IC50 (text example, read-out: IC50 (concentration which would bring about an inhibition of 50%)): 67 µM
O=S(=O)(Nc1ccc(-c2ccccc2)cc1)c1cccc2c(Cl)cccc12 [Compound 30, N-biphenyl-5-chloro-1-naphthalenesulfonamide] | 275 | –
O=C([C@H](Cc1ccccc1)NS(=O)(=O)c1cccc2cnccc12)N1CCNCC1 [Compound 31, N-(5-isoquinolinesulfonyl)-L-phenylalanine piperazineamide] | – | IC50 [1]: promotion; inhibition at 100 µM: 70.1%; inhibition at 300 µM (at 300 μM): 54%
NCCCCCCNC(=O)[C@H](Cc1ccccc1)NS(=O)(=O)c1cccc2cnccc12 [Compound 35, N-(5-isoquinolinesulfonyl)-L-phenylalanine-1,6-diaminohexaneamide] | 263 | –
CC(C)[C@H](NS(=O)(=O)c1cccc2cnccc12)C(=O)Nc1ccc(-c2ccccc2)cc1 [Compound 37, N-(5-isoquinolinesulfonyl)-L-valine biphenylamide] | 470 | –
O=C(Nc1ccc(-c2ccccc2)cc1)[C@@H]1CCCN1S(=O)(=O)c1cccc2cnccc12 [Compound 38, N-(5-isoquinolinesulfonyl)-L-proline biphenylamide] | 130 | –
O=C(Nc1ccc(-c2ccccc2)cc1)[C@H]1CCCN1S(=O)(=O)c1cccc2cnccc12 [Compound 40, N-(5-isoquinolinesulfonyl)-D-proline biphenylamide] | 435 | –
O=S(=O)(Nc1ccc(-c2ccccc2)cc1)c1cccc2cnccc12 [Compound 41, N-biphenyl-5-isoquinolinesulfonamide] | – | IC50 [1]: promotion; inhibition at 10 µM (at 10 μM): 31.6%; inhibition at 100 µM: 28.3%
O=S(=O)(Nc1ccccc1)c1cccc2c(Cl)cccc12 [compound 43, reference compound] | 190 | –
